According to ChEMBL document CHEMBL3098015, “Synthesis and evaluation of 1-cyclopropyl-6-fluoro-1,4-dihydro-4-oxo-7-(4-(2-(4-substitutedpiperazin-1-yl)acetyl)piperazin-1-yl)quinoline-3-carboxylic acid derivatives as anti-tubercular and antibacterial agents” (Eur J Med Chem, 2014):
≈ marks a conversion by molar mass, not a printed value.

What was measured:
Escherichia coli [1] = experiment: Antimicrobial activity against Escherichia coli ATCC 25922 after 24 hrs by broth microdilution method; type: functional; settings: ATCC 25922, 24 h
Staphylococcus aureus [2] = experiment: Antimicrobial activity against Staphylococcus aureus ATCC 29213 after 24 hrs by broth microdilution method; type: functional; settings: ATCC 29213, 24 h
[3] = test system: Mycobacterium tuberculosis; experiment: Antimicrobial activity against Mycobacterium tuberculosis H37Rv ATCC 27294 after 3 weeks by microbroth dilution method; type: functional; settings: H37Rv ATCC 27294, 504 h
[4] = Cytotoxicity against mouse RAW264.7 cells at 50 uM after 72 hrs by MTT assay; type: cell-based; settings: read-out: INH
[5] = Selectivity index, ratio of IC50 for mouse RAW264.7 cells to MIC for Mycobacterium tuberculosis H37Rv ATCC 27294; type: toxicity; settings: read-out: Selectivity Index
RAW264.7 = experiment: Cytotoxicity against mouse RAW264.7 cells after 72 hrs by MTT assay; type: cell-based; settings: RAW264.7, 72 h
[6] = Inhibition of DNA gyrase (unknown origin) using relaxed pBR322 as substrate after 30 mins by agarose gel electrophoresis
Escherichia coli [7] = experiment: Bactericidal activity against Escherichia coli ATCC 25922 assessed as 3 log reduction in inoculum size after 24 hrs by broth microdilution method relative to control; type: functional; settings: ATCC 25922, 24 h
Staphylococcus aureus [8] = experiment: Bactericidal activity against Staphylococcus aureus ATCC 29213 assessed as 3 log reduction in inoculum size after 24 hrs by broth microdilution method relative to control; type: functional; settings: ATCC 29213, 24 h

SMILES | MIC99 (Escherichia coli [1]) [µM] | MIC99 (Staphylococcus aureus [2]) [µM] | MIC99 [3] [µM] | cytotoxicity at 72 h, 50 µM [4] [%] | selectivity ratio [5] | IC50 (RAW264.7) [µM] | IC50 [6] [µM] | MBC (Escherichia coli [7]) [µM] | MBC (Staphylococcus aureus [8]) [µM]
O=C(O)c1cn(C2CC2)c2cc(N3CCN(C(=O)CN4CCN(C(c5ccc(F)cc5)c5ccc(F)cc5)CC4)CC3)c(F)cc2c1=O | > 24.3 | 1.51 (≈ 0.996 µg/mL) | > 97.2 |  |  |  |  |  | 
O=C(O)c1cn(C2CC2)c2cc(N3CCN(C(=O)CN4CCN(c5ccc(F)c(F)c5)CC4)CC3)c(F)cc2c1=O | > 225 | > 225 | > 113 |  |  |  |  |  | 
O=C(O)c1cn(C2CC2)c2cc(N3CCN(C(=O)CN4CCN(C(c5ccccc5)c5ccccc5)CC4)CC3)c(F)cc2c1=O | 12.8 (≈ 8.01 µg/mL) | 0.8 (≈ 0.499 µg/mL) | 25.7 (≈ 16 µg/mL) | 25.9 | 3.75 | 96.6 |  |  | 
N#Cc1ccccc1N1CCN(CC(=O)N2CCN(c3cc4c(cc3F)c(=O)c(C(=O)O)cn4C3CC3)CC2)CC1 | 3.58 (≈ 2 µg/mL) | 0.89 (≈ 0.497 µg/mL) | > 115 |  |  |  |  |  | 
O=C(O)c1cn(C2CC2)c2cc(N3CCN(C(=O)CN4CCN(c5ccccn5)CC4)CC3)c(F)cc2c1=O | 3.75 (≈ 2 µg/mL) | 1.87 (≈ 1 µg/mL) | > 120 |  |  |  |  |  | 
O=C(O)c1cn(C2CC2)c2cc(N3CCN(C(=O)CN4CCN(c5ncccn5)CC4)CC3)c(F)cc2c1=O | 3.74 (≈ 2 µg/mL) | 1.87 (≈ 1 µg/mL) | 59.9 (≈ 32.1 µg/mL) | 11 | 3.79 | 227 |  |  | 
COc1ccc(N2CCN(CC(=O)N3CCN(c4cc5c(cc4F)c(=O)c(C(=O)O)cn5C4CC4)CC3)CC2)cc1OC | 6.75 (≈ 4.01 µg/mL) | 1.68 (≈ 0.997 µg/mL) | > 108 |  |  |  |  |  | 
O=C(O)c1cn(C2CC2)c2cc(N3CCN(C(=O)CN4CCN(c5cccc(O)c5)CC4)CC3)c(F)cc2c1=O | 3.64 (≈ 2 µg/mL) | 1.82 (≈ 1 µg/mL) | > 117 |  |  |  |  |  | 
CN(C)CCN1CCN(CC(=O)N2CCN(c3cc4c(cc3F)c(=O)c(C(=O)O)cn4C3CC3)CC2)CC1 | 7.58 (≈ 4.01 µg/mL) | 7.58 (≈ 4.01 µg/mL) | 121 (≈ 64.2 µg/mL) |  |  |  |  |  | 
O=C(O)c1cn(C2CC2)c2cc(N3CCN(C(=O)CN4CCN(c5cccc(C(F)(F)F)c5)CC4)CC3)c(F)cc2c1=O | 6.66 (≈ 4.01 µg/mL) | 0.83 (≈ 0.499 µg/mL) | > 107 |  |  |  |  |  | 
CC(=O)N1CCN(CC(=O)N2CCN(c3cc4c(cc3F)c(=O)c(C(=O)O)cn4C3CC3)CC2)CC1 | 16.1 (≈ 8.02 µg/mL) | 4.01 (≈ 2 µg/mL) | 16.1 (≈ 8.02 µg/mL) | 16.2 | 9.59 | 154 |  |  | 
O=C(O)c1cn(C2CC2)c2cc(N3CCN(C(=O)CN4CCN(Cc5ccccc5)CC4)CC3)c(F)cc2c1=O | 1.83 (≈ 1 µg/mL) | 1.83 (≈ 1 µg/mL) | 7.32 (≈ 4.01 µg/mL) | 15.5 | 22 | 161 | 7 |  | 
O=C(O)c1cn(C2CC2)c2cc(N3CCN(C(=O)CN4CCN(c5ccccc5)CC4)CC3)c(F)cc2c1=O | 1.87 (≈ 0.998 µg/mL) | 0.93 (≈ 0.496 µg/mL) | > 120 |  |  |  |  | 7.51 (≈ 4.01 µg/mL) | 7.51 (≈ 4.01 µg/mL)
O=C(O)c1cn(C2CC2)c2cc(N3CCN(C(=O)CN4CCN(c5ccccc5Cl)CC4)CC3)c(F)cc2c1=O | 0.88 (≈ 0.5 µg/mL) | 0.44 (≈ 0.25 µg/mL) | 28.2 (≈ 16 µg/mL) | 14.9 | 5.92 | 167 |  | 7.06 (≈ 4.01 µg/mL) | 0.88 (≈ 0.5 µg/mL)
N#Cc1ccc(N2CCN(CC(=O)N3CCN(c4cc5c(cc4F)c(=O)c(C(=O)O)cn5C4CC4)CC3)CC2)cc1 | 7.17 (≈ 4.01 µg/mL) | 7.17 (≈ 4.01 µg/mL) | > 115 |  |  |  |  |  | 
O=C(O)c1cn(C2CC2)c2cc(N3CCN(C(=O)CN4CCN(c5ccc([N+](=O)[O-])cc5)CC4)CC3)c(F)cc2c1=O | 13.8 (≈ 8.01 µg/mL) | 6.92 (≈ 4 µg/mL) | > 111 |  |  |  |  |  | 
COc1cccc(N2CCN(CC(=O)N3CCN(c4cc5c(cc4F)c(=O)c(C(=O)O)cn5C4CC4)CC3)CC2)c1 | 3.55 (≈ 2 µg/mL) | 0.88 (≈ 0.496 µg/mL) | > 114 |  |  |  |  |  | 
Cc1cccc(N2CCN(CC(=O)N3CCN(c4cc5c(cc4F)c(=O)c(C(=O)O)cn5C4CC4)CC3)CC2)c1 | 7.32 (≈ 4.01 µg/mL) | 1.83 (≈ 1 µg/mL) | 29.3 (≈ 16 µg/mL) | 16.2 | 5.26 | 154 |  |  | 
CC(c1ccccc1)N1CCN(CC(=O)N2CCN(c3cc4c(cc3F)c(=O)c(C(=O)O)cn4C3CC3)CC2)CC1 (stereo not drawn) | 3.56 (≈ 2 µg/mL) | 1.78 (≈ 1 µg/mL) | 28.6 (≈ 16 µg/mL) | 16.9 | 5.17 | 148 |  |  | 
CCN1CCN(CC(=O)N2CCN(c3cc4c(cc3F)c(=O)c(C(=O)O)cn4C3CC3)CC2)CC1 | 16.5 (≈ 8.02 µg/mL) | 16.5 (≈ 8.02 µg/mL) | 33 (≈ 16 µg/mL) | 13.3 | 5.68 | 188 |  |  | 
CN1CCN(CC(=O)N2CCN(c3cc4c(cc3F)c(=O)c(C(=O)O)cn4C3CC3)CC2)CC1 | 34 (≈ 16 µg/mL) | 34 (≈ 16 µg/mL) | 136 (≈ 64.2 µg/mL) |  |  |  |  |  | 
O=C(O)c1cn(C2CC2)c2cc(N3CCN(C(=O)CN4CCN(c5ccc(Cl)cc5)CC4)CC3)c(F)cc2c1=O | 7.06 (≈ 4.01 µg/mL) | 1.76 (≈ 1 µg/mL) | 113 (≈ 64.2 µg/mL) |  |  |  |  |  | 
O=C(O)c1cn(C2CC2)c2cc(N3CCNCC3)c(F)cc2c1=O [CIPROFLOXACIN] | 0.021 (≈ 0.00696 µg/mL) | 0.37 (≈ 0.123 µg/mL) |  |  |  |  |  |  | 
CO[C@H]1/C=C/O[C@@]2(C)Oc3c(C)c(O)c4c(O)c(c(/C=N/N5CCN(C)CC5)c(O)c4c3C2=O)NC(=O)/C(C)=C\C=C\[C@H](C)[C@H](O)[C@@H](C)[C@@H](O)[C@@H](C)[C@H](OC(C)=O)[C@@H]1C [RIFAMPIN] |  |  | 0.14 (≈ 0.115 µg/mL) |  |  |  |  |  | 
